Assay results published in US6355799B1, “Substituted benzene compounds, process for their preparation, and herbicidal and defoliant compositions containing them” (ISK Americas Incorporated, priority 1997, dated 2002).

How the values were obtained:
Experiment in all cases: Pre-emerge test, greenhouse herbicide activity screening
Format in all cases: in vivo
[1] = system: large crabgrass (Digitaria sanguinalis, DIGSA); conditions: pre-emerge; for phytotoxicity rating DIGSA: 14 days after application, rating scale 0-100; for Pre-emerge Herbicidal Activity DIGSA (phytotoxicity rating, scale 0-100): rated 14 days after application, 0 = no damage, 100 = complete death
Excerpt: (§1) A standard greenhouse herbicide activity screening system was used to evaluate the herbicidal efficacy and crop safety of these test compounds. Seven broadleaf weed species including redroot pigweed (Amaranthus retroflexus, AMARE, velvetleaf (Abutilon theophrasti, ABUTH), sicklepod (Cassia obtusifolia, CASOB), ivyleaf morningglory (Ipomoea hederacea, IPOHE), lambsquarters (Chenopodium album, CHEAL), common ragweed (Ambrosia artemisizfolia L., AMBEL), and cocklebur (Xanthium strumarium, XANST) were used as test species. Four grass weed species including green foxtail (Setaria viridis, SETVI), barnyardgrass (Echinochloa crus-galli, ECHCG), johnsongrass (Sorghum halepense, SORHA), and large crabgrass (Digitaria sanguinalis, DIGSA) were also used. In addition, three crop species, field corn (Zea mays L., var. Dekalb 535, CORN), soybean (Glycine max L., var. Pella 86, SOY), and is upland rice (Oryza sp., var. Tebonnet, RICE) were included.
(§2) All plants were grown in 10 cm square plastic pots which were filled with a sandy loam soil mix. For pre-emerge tests, seeds were planted one day prior to application of the test compounds. For post-emerge tests, seeds were planted 8-21 days prior to the test to allow emergence and good foliage development prior to application of the test substances. At the time of the post-emerge application, plants of all species were usually at the 2-3 leaf stage of development.
(§3) All test compounds Were dissolved in acetone and applied to the test units in a volume of 187 l /ha. Test materials were applied at rates ranging from 15 g ai/ha to 1000 g ai/ha using a track sprayer equipped with a TJ8001E even flow flat fan spray nozzle. Plants were arranged on a shelf so that the top of the canopy (post-emerge) or top of the soil surface (pre-emerge) was 40-45 cm below the nozzle. Pressurized air was used to force the test solution through the nozzle as it was mechanically advanced (via electrically driven chain drive) over the top of all test plants/pots. This application simulates a typical commercial field herbicide application.
(§4) In the post-emerge test, a commercial non-ionic surfactant was also included (0.25% v/v) to enhance wetting of the leaf surfaces of target plants. Immediately after application, test units of the pre-emerge applications were watered at the soil surface to incorporate the test materials. Subsequently, these test units were bottom-watered. Post-emerge test units were always bottom-watered.
(§5) At 14 days after application of the test materials, phytotoxicity ratings were recorded. A rating scale of 0-100 was used as previously described in Research Methods in Weed Science, 2nd edition, B. Truelove, Ed., Southern Weed Science Society, Auburn University, Auburn, Ala. 1977. Briefly, “0” corresponds to no damage and “100” corresponds to complete death of all plants in the test unit. This scale was used both to determine efficacy against weed species and damage to crop species. Herbicide activity data for various compounds of this invention, which are shown by compound No. in Tables 1-8, are shown in Tables 11 and 12.

[2] = system: ivyleaf morningglory (Ipomoea hederacea, IPOHE); conditions: pre-emerge; for phytotoxicity rating IPOHE: 14 days after application, rating scale 0-100; for Pre-emerge Herbicidal Activity IPOHE (phytotoxicity rating, scale 0-100): rated 14 days after application, 0 = no damage, 100 = complete death
Excerpt: as §1, §2, §3, §4, §5

[3] = system: johnsongrass (Sorghum halepense, SORHA); conditions: pre-emerge; for phytotoxicity rating SORHA: 14 days after application, rating scale 0-100; for Pre-emerge Herbicidal Activity SORHA (phytotoxicity rating, scale 0-100): rated 14 days after application, 0 = no damage, 100 = complete death
Excerpt: as §1, §2, §3, §4, §5

[4] = system: lambsquarters (Chenopodium album, CHEAL); conditions: pre-emerge; for phytotoxicity rating CHEAL: 14 days after application, rating scale 0-100; for Pre-emerge Herbicidal Activity CHEAL (phytotoxicity rating, scale 0-100): rated 14 days after application, 0 = no damage, 100 = complete death
Excerpt: as §1, §2, §3, §4, §5

[5] = system: velvetleaf (Abutilon theophrasti, ABUTH); conditions: pre-emerge; for phytotoxicity rating ABUTH: 14 days after application, rating scale 0-100; for Pre-emerge Herbicidal Activity ABUTH (phytotoxicity rating, scale 0-100): rated 14 days after application, 0 = no damage, 100 = complete death
Excerpt: as §1, §2, §3, §4, §5

[6] = system: green foxtail (Setaria viridis, SETVI); conditions: pre-emerge; for phytotoxicity rating SETVI: 14 days after application, rating scale 0-100; for Pre-emerge Herbicidal Activity SETVI (phytotoxicity rating, scale 0-100): rated 14 days after application, 0 = no damage, 100 = complete death
Excerpt: as §1, §2, §3, §4, §5

[7] = system: sicklepod (Cassia obtusifolia, CASOB); conditions: pre-emerge; for phytotoxicity rating CASOB: 14 days after application, rating scale 0-100; for Pre-emerge Herbicidal Activity CASOB (phytotoxicity rating, scale 0-100): rated 14 days after application, 0 = no damage, 100 = complete death
Excerpt: as §1, §2, §3, §4, §5

[8] = system: barnyardgrass (Echinochloa crus-galli, ECHCG); conditions: pre-emerge; for phytotoxicity rating ECHCG: 14 days after application, rating scale 0-100; for Pre-emerge Herbicidal Activity ECHCG (phytotoxicity rating, scale 0-100): rated 14 days after application, 0 = no damage, 100 = complete death
Excerpt: as §1, §2, §3, §4, §5

[9] = system: redroot pigweed (Amaranthus retroflexus, AMARE); conditions: pre-emerge; for phytotoxicity rating AMARE: 14 days after application, rating scale 0-100; for Pre-emerge Herbicidal Activity AMARE (phytotoxicity rating, scale 0-100): rated 14 days after application, 0 = no damage, 100 = complete death
Procedure, shortened: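 Plants grown in 10 cm pots of sandy loam mix received acetone-dissolved compounds through a moving flat-fan nozzle. Doses ranged from 15 to 1000 g ai/ha. Pre-emerge pots were seeded one day earlier, post-emerge pots 8–21 days earlier. Fourteen days on, each pot was graded 0–100 for damage.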

## COc1c(Cl)cc(F)c(-n2c(=O)cc(C(F)(F)F)n(C)c2=O)c1O [Compound 16-6, 3-(4-chloro-6-fluoro-2-hydroxy-3-methoxyphenyl)-1-methyl-6-trifluoromethyl-2,4(1H, 3H)-pyrimidinedione]
[1]; 63 g ai/ha
  phytotoxicity rating DIGSA: 0
[1]; 250 g ai/ha
  phytotoxicity rating DIGSA: 70
[2]; 63 g ai/ha
  phytotoxicity rating IPOHE: 50
[2]; 250 g ai/ha
  phytotoxicity rating IPOHE: 90
[3]; 63 g ai/ha
  phytotoxicity rating SORHA: 0
[3]; 250 g ai/ha
  phytotoxicity rating SORHA: 50
[4]; 63 g ai/ha
  phytotoxicity rating CHEAL: 90
[4]; 250 g ai/ha
  phytotoxicity rating CHEAL: 100
[5]; 63 g ai/ha
  phytotoxicity rating ABUTH: 90
[5]; 250 g ai/ha
  phytotoxicity rating ABUTH: 100
[6]; 63 g ai/ha
  phytotoxicity rating SETVI: 0
[6]; 250 g ai/ha
  phytotoxicity rating SETVI: 40
[7]; 63 g ai/ha
  phytotoxicity rating CASOB: 50
[7]; 250 g ai/ha
  phytotoxicity rating CASOB: 70
[8]; 63 g ai/ha
  phytotoxicity rating ECHCG: 0
[8]; 250 g ai/ha
  phytotoxicity rating ECHCG: 50
[9]; 63 g ai/ha
  phytotoxicity rating AMARE: 70
[9]; 250 g ai/ha
  phytotoxicity rating AMARE: 100

## O=c1cc(C(F)(F)F)[nH]c(=O)n1-c1c(F)cc(Cl)c(O)c1[N+](=O)[O-] [Compound 1-2, 3-(4-chloro-6-fluoro-3-hydroxy-2-nitrophenyl)-6-trifluoromethyl-2,4(1H, 3H)-pyrimidinedione]
[1]; 63 g ai/ha
  Pre-emerge Herbicidal Activity DIGSA (phytotoxicity rating, scale 0-100): 0
[1]; 250 g ai/ha
  Pre-emerge Herbicidal Activity DIGSA (phytotoxicity rating, scale 0-100): 30
[2]; 63 g ai/ha
  Pre-emerge Herbicidal Activity IPOHE (phytotoxicity rating, scale 0-100): 0
[2]; 250 g ai/ha
  Pre-emerge Herbicidal Activity IPOHE (phytotoxicity rating, scale 0-100): 0
[3]; 63 g ai/ha
  Pre-emerge Herbicidal Activity SORHA (phytotoxicity rating, scale 0-100): 0
[3]; 250 g ai/ha
  Pre-emerge Herbicidal Activity SORHA (phytotoxicity rating, scale 0-100): 0
[4]; 63 g ai/ha
  Pre-emerge Herbicidal Activity CHEAL (phytotoxicity rating, scale 0-100): 0
[4]; 250 g ai/ha
  Pre-emerge Herbicidal Activity CHEAL (phytotoxicity rating, scale 0-100): 0
[5]; 63 g ai/ha
  Pre-emerge Herbicidal Activity ABUTH (phytotoxicity rating, scale 0-100): 50
[5]; 250 g ai/ha
  Pre-emerge Herbicidal Activity ABUTH (phytotoxicity rating, scale 0-100): 10
[6]; 63 g ai/ha
  Pre-emerge Herbicidal Activity SETVI (phytotoxicity rating, scale 0-100): 20
[6]; 250 g ai/ha
  Pre-emerge Herbicidal Activity SETVI (phytotoxicity rating, scale 0-100): 0
[7]; 63 g ai/ha
  Pre-emerge Herbicidal Activity CASOB (phytotoxicity rating, scale 0-100): 90
[7]; 250 g ai/ha
  Pre-emerge Herbicidal Activity CASOB (phytotoxicity rating, scale 0-100): 100
[8]; 63 g ai/ha
  Pre-emerge Herbicidal Activity ECHCG (phytotoxicity rating, scale 0-100): 0
[8]; 250 g ai/ha
  Pre-emerge Herbicidal Activity ECHCG (phytotoxicity rating, scale 0-100): 0
[9]; 63 g ai/ha
  Pre-emerge Herbicidal Activity AMARE (phytotoxicity rating, scale 0-100): 0
[9]; 250 g ai/ha
  Pre-emerge Herbicidal Activity AMARE (phytotoxicity rating, scale 0-100): 0
